Where two headings read alike, the source gives them in different places.
Molecular target: T1, STAT3 (Homo sapiens, UniProt P40763)
T1 construct: expressed in transfected cells; host or cells: A549
Assay: STAT3 HiBiT degradation assay (Nano-Glo HiBiT lytic detection) in transfected A549 cells
Assay type: cell-based
Experimental: Example 1. HiBiT Assay Protocol
Compound preparation and Cell seeding: The transfected A549 cells were harvested from dish into cell culture medium and cell numbers counted. Cells were diluted with culture medium to the desired density and 30 μL of cell suspension (about 2000 cells/well) were added into each well of a 384-well cell culture plate as designated and transferred into 37° C. 5% CO2 incubator for 24 h. Compounds were dissolved to 10 mM stock solution and 12 μL of the stock solution was transferred to a 384 LDV-plate. 3 fold, 10-point dilution was performed by transferring 4 μL compound into 8 μL DMSO using a TECAN (EVO200) liquid handler. 30 μl of diluted compound from compound source plate was transferred into the cell plate as designated by using Echo550 and transferred into 37° C. 5% CO2 incubator for 24 h.
Detection: Plates were removed from incubators and equilibrated at room temperature for 15 minutes. Nano-Glo Hibit Lytic Detection reagent (Promega Cat #N3040) was thawed and equilibrated to room temperature before the experiment. 30 μL of Nano-Glo Hibit Lytic Detection reagent was added into each well to be detected. The plates were held at room temperature for 10 min followed by reading on EnSpire.
Data analysis: The remaining activity was calculated following the formula: Remaining Activity (%)=100%×(Lumsample−LumNC)/(LumPC−LumNC). Calculate the IC50 by fitting the curve using Xlfit (v5.3.1.3), equation 201: fit=(A+((B−A)/(1+((x/C)^D)))); A: Botton; B: Top; C: IC50; and D: Slope.
The letter codes for STAT3 DC50 include: A (<0.01 μM), B (0.01-0.1 μM), C (0.1-1.0 μM), and D (>1.0 μM).

[1] = read-out: STAT3 HiBIT A549 degradation 24 h: Average external-Abs DC50, 24 h compound incubation
[2] = 24 h compound incubation, read-out: STAT3 HiBIT A549 degradation 24 h: Average external-Abs DC50

T1 sequence (P40763 whole entry): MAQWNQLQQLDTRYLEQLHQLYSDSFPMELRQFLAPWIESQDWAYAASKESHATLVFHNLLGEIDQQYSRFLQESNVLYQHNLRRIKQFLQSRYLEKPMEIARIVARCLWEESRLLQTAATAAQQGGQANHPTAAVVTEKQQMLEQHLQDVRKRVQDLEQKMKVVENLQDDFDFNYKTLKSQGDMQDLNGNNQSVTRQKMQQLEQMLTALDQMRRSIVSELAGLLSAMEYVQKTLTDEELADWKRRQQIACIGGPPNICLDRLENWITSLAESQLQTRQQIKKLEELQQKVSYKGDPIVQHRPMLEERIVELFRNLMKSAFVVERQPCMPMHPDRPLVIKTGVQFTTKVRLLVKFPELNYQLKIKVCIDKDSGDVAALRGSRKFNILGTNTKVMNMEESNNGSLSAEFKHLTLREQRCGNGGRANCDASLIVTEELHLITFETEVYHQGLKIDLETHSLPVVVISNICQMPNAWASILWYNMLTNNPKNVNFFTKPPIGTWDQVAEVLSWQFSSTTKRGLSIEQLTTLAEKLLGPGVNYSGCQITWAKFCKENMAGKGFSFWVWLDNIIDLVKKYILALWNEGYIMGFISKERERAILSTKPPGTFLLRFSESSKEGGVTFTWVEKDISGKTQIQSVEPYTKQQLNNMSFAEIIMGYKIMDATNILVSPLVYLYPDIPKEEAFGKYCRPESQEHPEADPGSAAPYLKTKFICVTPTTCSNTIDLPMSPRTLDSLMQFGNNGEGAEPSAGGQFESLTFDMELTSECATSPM

| SMILES | DC50 [1] [nM] | DC50 [2] [nM] |
| --- | --- | --- |
| Cc1ncsc1-c1ccc([C@H](C)NC(=O)[C@@H]2C[C@@H](O)CN2C(=O)[C@@H](NC(=O)CCCc2cccc(OC[C@H](CCC(N)=O)NC(=O)[C@@H]3CC[C@@H]4CCCC[C@H](NC(=O)c5cc6cc(C(F)(F)P(=O)(O)O)ccc6s5)C(=O)N43)c2Cl)C(C)(C)C)cc1 [I-89] | > 1000 |  |
| Cn1c(=O)n(C2CCC(=O)NC2=O)c2ccc(C[C@H]3CC[C@@H](CC(=O)N4CC[C@H]5CC[C@@H](C(=O)N[C@@H](CCC(N)=O)C(=O)NCc6ccc(S(C)(=O)=O)cc6)N5C(=O)[C@@H](NC(=O)c5cc6cc(C(=O)O)ccc6[nH]5)C4)CC3)cc21 (stereo partly drawn) [I-75, 2-[[(5S,8S,10aR)-8-[[(1S)-3-carbamoyl-1-[[(4-methanesulfonylphenyl)methyl]carbamoyl]propyl]carbamoyl]-6-oxo-3-[2-[(1s,4s)-4-[[1-(2,6-dioxopiperidin-3-yl)-3-methyl-2-oxo-1,3-benzodiazol-5-yl]methyl]cyclohexyl]acetyl]-octahydropyrrolo[1,2-a][1,5]diazocin-5-yl]carbamoyl]-1H-indole-5-carboxylic acid] |  | > 1000 |
| C[C@H](NC(=O)[C@@H]1Cc2cc(CCCCCCc3ccc4c(c3)n(C)c(=O)n4C3CCC(=O)NC3=O)cc3c2N1C(=O)[C@@H](NC(=O)c1cc2cc(C(=O)P(=O)(O)O)ccc2[nH]1)CC3)C(=O)NCc1ccc(S(C)(=O)=O)cc1 (stereo partly drawn) [I-65, 2-[[(2S,11S)-6-[6-[1-(2,6-dioxopiperidin-3-yl)-3-methyl-2-oxo-1,3-benzodiazol-5-yl]hexyl]-2-[[(1S)-1-[[(4-methanesulfonylphenyl)methyl]carbamoyl]ethyl]carbamoyl]-12-oxo-1-azatricyclo[6.4.1.0^[4,13]]trideca-4(13),5,7-trien-11-yl]carbamoyl]-1H-indole-5-carbonylphosphonic acid] |  | > 1000 |
| Cn1c(=O)n(C2CCC(=O)NC2=O)c2ccc(CCCCCCc3cc4c5c(c3)C[C@@H](C(=O)N[C@@H](CCC(N)=O)C(=O)NCc3ccc(S(C)(=O)=O)cc3)N5C(=O)[C@@H](NC(=O)c3cc5cc(C(=O)P(=O)(O)O)ccc5[nH]3)CC4)cc21 (stereo partly drawn) [I-81, (2-(((3S,6S)-6-(((S)-5-amino-1l-((4-(methylsulfonyl)benzyl)amino)-1,5-dioxopentan-2-yl)carbamoyl)-9-(6-(1-(2,6-dioxopiperidin-3-yl)-3-methyl-2-oxo-2,3-dihydro-1H-benzo[d]imidazol-5-yl)hexyl)-4-oxo-1,2,3,4,6,7-hexahydroazepino[3,2,1-hi]indol-3-yl)carbamoyl)-1H-indole-5-carbonyl)phosphonic acid] |  | 10 to 100 |
| Cn1c(=O)n(C2CCC(=O)NC2=O)c2ccc(C[C@H]3CC[C@@H](CC(=O)N4CC[C@H]5CC[C@@H](C(=O)NC6(CCC(N)=O)CC6)N5C(=O)[C@@H](NC(=O)c5cc6cc(C(=O)P(=O)(O)O)ccc6[nH]5)C4)CC3)cc21 (stereo partly drawn) [I-31] |  | > 1000 |
| Cc1ncsc1-c1ccc(CNC(=O)[C@@H]2C[C@@H](O)CN2C(=O)[C@@H](c2cc(OCCCc3cccc(OC[C@H](CCC(N)=O)NC(=O)[C@@H]4Cc5cccc6c5N4C(=O)[C@@H](NC(=O)c4cc5cc(C(=O)P(=O)(O)O)ccc5[nH]4)CC6)c3Cl)no2)C(C)C)cc1 [I-63] |  | < 10 |
| Cc1ncsc1-c1ccc(C2(NC(=O)[C@@H]3C[C@@H](O)CN3C(=O)[C@@H](NC(=O)CCCc3cccc(OC[C@H](CCC(N)=O)NC(=O)[C@@H]4Cc5cccc6c5N4C(=O)[C@@H](NC(=O)c4cc5cc(C(=O)P(=O)(O)O)ccc5[nH]4)CC6)c3Cl)C(C)(C)C)CC2)cc1 [I-71] |  | 10 to 100 |
| COC(=O)N1CC[C@H]2CC[C@@H](C(=O)N[C@@H](CCC(N)=O)COc3cccc(CCCC(=O)N[C@H](C(=O)N4C[C@H](O)C[C@H]4C(=O)N[C@@H](C)c4ccc(-c5scnc5C)cc4)C(C)(C)C)c3Cl)N2C(=O)[C@@H](NC(=O)c2cc3cc(C(=O)P(=O)(O)O)ccc3[nH]2)C1 [I-87] |  | > 1000 |
| C[C@H](NC(=O)[C@H](CCC(N)=O)NC(=O)[C@@H]1CC[C@@H]2CCN(C(=O)C[C@H]3CC[C@@H](Cc4ccc5c(c4)n(C)c(=O)n5C4CCC(=O)NC4=O)CC3)C[C@H](NC(=O)c3cc4cc(C(=O)P(=O)(O)O)ccc4[nH]3)C(=O)N21)c1ccc(S(C)(=O)=O)cc1 (stereo partly drawn) [I-41] |  | 100 to 1000 |
| CC(=O)N1CC[C@H]2CC[C@@H](C(=O)N[C@@H](CCC(N)=O)COc3cc(C)cc(CCCCCC(=O)N[C@H](C(=O)N4C[C@@H](O)C[C@H]4C(=O)N[C@@H](C)c4ccc(-c5scnc5C)cc4)C(C)(C)C)c3F)N2C[C@@H](NC(=O)c2cc3cc(C(=O)P(=O)(O)O)ccc3[nH]2)C1 [I-23] |  | > 1000 |
| Cn1c(=O)n(C2CCC(=O)NC2=O)c2ccc(CC[C@H]3CC[C@H](C(=O)N4CC[C@H]5CC[C@@H](C(=O)N[C@@H](CCC(N)=O)C(=O)NCc6ccc(S(C)(=O)=O)cc6)N5C(=O)[C@@H](NC(=O)c5cc6cc(C(=O)P(=O)(O)O)ccc6[nH]5)C4)CC3)cc21 (stereo partly drawn) [I-73] |  | 10 to 100 |
| Cc1ncsc1-c1ccc([C@H](C)NC(=O)[C@@H]2C[C@@H](O)CN2C(=O)[C@@H](NC(=O)CCCc2cccc(OC[C@H](CCC(N)=O)NC(=O)[C@@H]3CC[C@@H]4CCN(C(=O)c5cccc(F)c5)C[C@H](NC(=O)c5cc6cc(C(=O)P(=O)(O)O)ccc6[nH]5)C(=O)N43)c2Cl)C(C)(C)C)cc1 [I-60] |  | 10 to 100 |
| CC(C)c1ccc(CNC(=O)[C@H](CCC(N)=O)NC(=O)[C@@H]2CC[C@@H]3CCN(C(=O)[C@H]4CC[C@@H](CCc5ccc6c(c5)n(C)c(=O)n6C5CCC(=O)NC5=O)CC4)C[C@H](NC(=O)c4cc5cc(C(=O)P(=O)(O)O)ccc5[nH]4)C(=O)N32)cc1Cl (stereo partly drawn) [I-33] | 10 to 100 |  |
| Cc1ncsc1-c1ccc([C@H](C)NC(=O)[C@@H]2C[C@@H](O)CN2C(=O)[C@@H](NC(=O)CCCc2cccc(OC[C@H](CCC(N)=O)NC(=O)[C@@H]3CCCN3C(=O)[C@H](Cc3c[nH]cn3)NC(=O)c3cc4cc(C(=O)P(=O)(O)O)ccc4[nH]3)c2Cl)C(C)(C)C)cc1 [I-61] |  | 10 to 100 |
| Cc1cc(CCCC(=O)N[C@H](C(=O)N2C[C@H](O)C[C@H]2C(=O)N[C@@H](C)c2ccc(-c3scnc3C)cc2)C(C)(C)C)c(F)c(OC[C@H](CCC(N)=O)NC(=O)[C@@H]2CC[C@@H]3CCCC[C@H](NC(=O)c4cc5cc(C(=O)P(=O)(O)O)ccc5[nH]4)C(=O)N32)c1 [I-7] |  | < 10 |
| Cn1c(=O)n(C2CCC(=O)NC2=O)c2ccc(C[C@H]3CC[C@@H](CC(=O)N4CC[C@H]5CC[C@@H](C(=O)N[C@@H](CCC(N)=O)C(=O)NCc6ccc(S(C)(=O)=O)c(F)c6)N5C(=O)[C@@H](NC(=O)c5cc6cc(C(=O)P(=O)(O)O)ccc6[nH]5)C4)CC3)cc21 (stereo partly drawn) [I-46] | 10 to 100 |  |
| Cc1ncsc1-c1ccc([C@H](C)NC(=O)[C@@H]2C[C@@H](O)CN2C(=O)[C@@H](NC(=O)CCCc2cccc(OC[C@H](CCC(N)=O)NC(=O)[C@@H]3CC[C@@H]4CCN(C(=O)C(C)C)C[C@H](NC(=O)c5cc6cc(C(=O)P(=O)(O)O)ccc6[nH]5)C(=O)N43)c2Cl)C(C)(C)C)cc1 [I-54] |  | < 10 |
| CNC(=O)[C@@H]1Cc2cc(CCCCCCc3ccc4c(c3)n(C)c(=O)n4C3CCC(=O)NC3=O)cc3c2N1C(=O)[C@@H](NC(=O)c1cc2cc(C(=O)P(=O)(O)O)ccc2[nH]1)CC3 (stereo partly drawn) [I-20] |  | > 1000 |
| Cc1ncsc1-c1ccc([C@H](C)NC(=O)[C@@H]2C[C@@H](O)CN2C(=O)[C@@H](NC(=O)CCCc2cccc(OC[C@H](CCC(N)=O)NC(=O)[C@@H]3CCCN3C(=O)[C@H](CO)NC(=O)c3cc4cc(C(=O)P(=O)(O)O)ccc4[nH]3)c2Cl)C(C)(C)C)cc1 [I-11] |  | 10 to 100 |
| Cc1ncsc1-c1ccc([C@H](C)NC(=O)[C@@H]2C[C@@H](O)CN2C(=O)[C@@H](NC(=O)CC2CCC(c3cccc(OC[C@H](CCC(N)=O)NC(=O)[C@@H]4Cc5cccc6c5N4C(=O)[C@@H](NC(=O)c4cc5cc(C(=O)P(=O)(O)O)ccc5[nH]4)CC6)c3Cl)CC2)C(C)(C)C)cc1 (stereo partly drawn) [I-55] |  | 10 to 100 |
| Cc1ncsc1-c1ccc([C@H](C)NC(=O)[C@@H]2C[C@@H](O)CN2C(=O)[C@@H](NC(=O)CCCc2cccc(OC[C@H](CCC(N)=O)NC(=O)[C@@H]3CCCN3C(=O)CNC(=O)c3cc4cc(C(=O)P(=O)(O)O)ccc4[nH]3)c2Cl)C(C)(C)C)cc1 [I-13] |  | 10 to 100 |
| Cc1cc(CCCC(=O)N[C@H](C(=O)N2C[C@H](O)C[C@H]2C(=O)N[C@@H](C)c2ccc(-c3scnc3C)cc2)C(C)(C)C)c(Cl)c(OC[C@H](CCC(N)=O)NC(=O)[C@@H]2CC[C@@H]3CCCC[C@H](NC(=O)c4cc5cc(C(=O)P(=O)(O)O)ccc5[nH]4)C(=O)N32)c1 [I-5] |  | < 10 |
| CC(=O)N1CC[C@H]2CC[C@@H](C(=O)N[C@@H](CCC(N)=O)COc3cccc(CCCC(=O)N[C@H](C(=O)N4C[C@@H](O)C[C@H]4C(=O)N[C@@H](C)c4ccc(-c5scnc5C)cc4)C(C)(C)C)c3Cl)N2C(=O)[C@@H](NC(=O)c2cc3cc(C(=O)P(=O)(O)O)ccc3[nH]2)C1 [I-42] |  | > 1000 |
| Cc1ncsc1-c1ccc([C@H](C)NC(=O)[C@@H]2C[C@@H](O)CN2C(=O)[C@@H](NC(=O)CCCc2cccc(OC[C@H](CCC(N)=O)NC(=O)[C@@H]3CC[C@@H]4CCN(C(=O)C(F)(F)F)C[C@H](NC(=O)c5cc6cc(C(=O)P(=O)(O)O)ccc6[nH]5)C(=O)N43)c2Cl)C(C)(C)C)cc1 [I-66] |  | < 10 |

Source: patent US20240016942A1, “STAT DEGRADERS AND USES THEREOF” (Kymera Therapeutics, Inc., priority 2020, published 2024)
